According to patent US20230414514A1, “FORMULATION TO DETER ABUSE OF DRUGS BY SMOKING” (Purdue Research Foundation, priority 2022, published 2023):

Assay: Thermogravimetric analysis (TGA), thermal stability / decomposition
Format: physicochemical
Conditions: as stated in the description, conditions not given
Procedure: Samples of 8.0-18.2 mg were placed in platinum TGA sample pans (CS Ceramic) and heated from room temperature to 700° C. at 20° C./min in a furnace under either inert (nitrogen) or oxidizing (air) atmosphere. The experiments were performed in triplicates (n=3) or quintuplicates (n=5). The data were exported and the TGA curves were analysed using TA Universal Analysis Software (Universal Analysis 2000 Version 4.5A, TA Instruments-Waters LLC, New Castle, DE) to determine onset degradation temperatures (Ton,degradation) and weight percent losses of the materials used in this study over the temperature intervals of interest. The values were averaged and reported as mean±standard deviation.
FIG. 3A and FIG. 3B show the TGA profiles for PLA and PCL respectively. […] The mean Ton,degradation of PLA was 278.8±3.8° C., with the average weight percent loss of 98.6±0.3% (n=3) during the decomposition step. The mean Ton,degradation of PCL was 353.1±1.7° C., and the weight percent loss averaged 97.9±1.1% (n=3).
PLA-PCL MS with a 1:9 polymer ratio lost 12.3±0.8% weight (n=3) during the first decomposition step, and 84.7±0.6% weight (n=3) during the second step. The mean weight percent loss for the PLA-PCL MS with a 5:5 ratio of PLA to PCL was 56.5±0.9% (n=3) and 38.4±1.1% (n=3) during the first and second thermal degradation steps. […]

COC1=CC=C2[C@H]3Cc4ccc(OC)c5c4[C@@]2(CCN3C)[C@H]1O5 [THB, Thebaine]
thermal decomposition temperature: about 183 °C
